Test results from paper PMC10559933 (The Prostate, 2023).

Tests used:
[1] = biological target: immobilized fl-HDAC4 (Homo sapiens, UniProt P56524); assay: SPR: compound in solution binding to immobilized fl-HDAC4; conditions: at >30 μM in solution, Zn2+ present
[2] = chronic doses of ≤0.1 mg/kg; cited from earlier work
[3] = system: CWR22-RH human prostate cancer PDXs; assay: In vivo growth of CWR22-RH PDX in castrate NSG mice; design: species or system human xenograft in NSG mice; conditions: oral 10 mg/kg/d over 3 weeks, castrate NSG mice
[4] = system: LvCaP-3 human prostate cancer PDXs; assay: In vivo growth of LvCaP-3 PDX in castrate mice; design: species or system human xenograft in mice; conditions: oral 10 mg/kg/d
[5] = system: thymus; assay: AHR agonist induced thymus regression in FVB male mice; format: in vivo; conditions: oral 10 mg/kg/d for 14 days; vehicle 72 +/− 3 (>70)

Sequence of immobilized fl-HDAC4 (P56524 whole entry): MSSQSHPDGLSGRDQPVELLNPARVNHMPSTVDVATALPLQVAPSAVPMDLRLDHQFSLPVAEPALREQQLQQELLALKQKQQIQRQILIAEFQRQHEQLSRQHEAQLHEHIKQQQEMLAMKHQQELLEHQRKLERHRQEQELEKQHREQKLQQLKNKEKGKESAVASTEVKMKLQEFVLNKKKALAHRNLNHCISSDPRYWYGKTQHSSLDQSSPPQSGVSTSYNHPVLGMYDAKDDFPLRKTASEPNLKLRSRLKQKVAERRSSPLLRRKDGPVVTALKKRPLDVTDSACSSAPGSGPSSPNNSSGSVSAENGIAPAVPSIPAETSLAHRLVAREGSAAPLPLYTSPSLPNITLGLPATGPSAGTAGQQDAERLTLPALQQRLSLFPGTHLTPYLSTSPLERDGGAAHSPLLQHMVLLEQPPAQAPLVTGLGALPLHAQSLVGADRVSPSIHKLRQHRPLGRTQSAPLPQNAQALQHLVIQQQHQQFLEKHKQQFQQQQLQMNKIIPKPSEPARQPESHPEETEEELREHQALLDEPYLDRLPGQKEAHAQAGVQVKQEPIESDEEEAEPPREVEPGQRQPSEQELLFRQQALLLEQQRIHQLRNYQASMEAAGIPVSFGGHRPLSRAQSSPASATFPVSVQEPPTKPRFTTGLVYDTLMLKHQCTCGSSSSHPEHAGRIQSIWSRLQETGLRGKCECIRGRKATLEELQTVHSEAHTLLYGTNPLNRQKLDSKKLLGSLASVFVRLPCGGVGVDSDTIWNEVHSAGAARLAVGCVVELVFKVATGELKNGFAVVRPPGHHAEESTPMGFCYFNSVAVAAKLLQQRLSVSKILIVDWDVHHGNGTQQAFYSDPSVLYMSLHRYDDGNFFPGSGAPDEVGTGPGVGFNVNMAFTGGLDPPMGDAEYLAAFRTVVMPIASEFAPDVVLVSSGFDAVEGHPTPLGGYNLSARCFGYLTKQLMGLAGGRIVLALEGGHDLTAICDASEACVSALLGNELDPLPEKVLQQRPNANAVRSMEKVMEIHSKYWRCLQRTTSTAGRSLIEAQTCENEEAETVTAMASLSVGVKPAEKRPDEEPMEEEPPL

Q: With `CN(C(=O)c1c(O)c2ccccc2n(C)c1=O)c1ccccc1` [Linomide, 4-hydroxy-N,1-dimethyl-2-oxo-N-phenyl-1,2-dihydroquinoline-3-carboxamide] as the compound, how does the “share of immobilized fl-HDAC4 protein bound” value [1] read?
A: 10–15%

Q: What about the “side effects in phase III trials” value [2] of the same compound?
A: several cases of pericarditis and neuropathy

Q: For `COC(=O)c1c(O)c2c(OC)cccc2n(C)c1=O` [ESATA-2], which “growth inhibitor (GI) activity” value [3] is on record?
A: no GI activity

Q: With `c1ccc2c(c1)cc1ccc3cccc4ccc2c1c34` [B(a)P, benzo[a]pyrene] as the compound, how does the “therapeutic efficacy” value [4] read?
A: completely lacks therapeutic efficacy

Q: What about the thymus weight [5] of the same compound?
A: 27 ± 8 mg
